Experimental data reported in US20230085307A1, “PYRIDAZINONE COMPOUND AND HERBICIDE” (NISSAN CHEMICAL CORPORATION, priority 2019, published 2023).

Legend:
redroot pigweed = assay: Test Example 4: herbicidal effect by soil treatment (Table 19, symbol N); assay type: in vivo, redroot pigweed (Amaranthus retroflexus); settings: 320 g/ha
Procedure, shortened: (§1)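 Scoring uses the grading scale of an earlier test, three weeks post-application. Treatment consists of spraying a diluted emulsion formulation across the surface of sterilized diluvial soil in which seeds are buried near 1.5 cm deep; boxes are kept in a greenhouse between 25° C. and 30° C.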

persian speedwell [1] = assay: Test Example 4: herbicidal effect by soil treatment (Table 19, symbol R); assay type: in vivo, Persian speedwell (Veronica persica); settings: 320 g/ha
Procedure, shortened: as §1

velvetleaf [2] = assay: Test Example 5: herbicidal effect by foliage application, plastic box (Table 20, symbol M); assay type: in vivo, velvetleaf (Abutilon theophrasti); settings: foliage application, 320 g/ha; for herbicidal effect on M: velvetleaf: evaluated three weeks after application
Procedure, shortened: (§2)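 Post-emergence foliar test in sterilized diluvial soil. Compound applied as water-diluted emulsion at a predetermined rate to 14-day-old plants; evaluation at three weeks.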

blackgrass [3] = assay: Test Example 4: herbicidal effect by soil treatment (Table 19, symbol J); assay type: in vivo, blackgrass (Alopecurus myosuroides); settings: 320 g/ha
Procedure, shortened: as §1

barnyard grass [4] = assay: Test Example 4: herbicidal effect by soil treatment (Table 19, symbol H); assay type: in vivo, barnyard grass (Echinochloa crus-galli); settings: 320 g/ha
Procedure, shortened: as §1

Japanese bulrush [5] = assay: Test Example 2: herbicidal activity, application during weed generation under submerged conditions (Table 17, symbol B); assay type: in vivo, Japanese bulrush (Schoenoplectus juncoides); settings: AAH 320 g/ha; application during weed generation, submerged conditions
Procedure, shortened: (§3)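 Mixed weed seedlings in alluvial soil under a 4 cm water layer, greenhouse-grown at 25–30° C. Compound given as a diluted emulsion into the floodwater at the 1–2 leaf stage; response graded after three weeks.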

green foxtail [6] = assay: Test Example 5: herbicidal effect by foliage application, plastic box (Table 20, symbol G); assay type: in vivo, green foxtail (Setaria viridis); settings: foliage application, 320 g/ha; for herbicidal effect on G: green foxtail: evaluated three weeks after application
Procedure, shortened: as §2

green foxtail [7] = assay: Test Example 4: herbicidal effect by soil treatment (Table 19, symbol G); assay type: in vivo, green foxtail (Setaria viridis); settings: 320 g/ha
Procedure, shortened: as §1

oval-leafed pondweed [8] = assay: Test Example 1: herbicidal activity, application before weed generation under submerged conditions (Table 16, symbol C); assay type: in vivo, oval-leafed pondweed (Monochoria vaginalis); settings: 320 g/ha applied herbicide
Procedure, shortened: (§4)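 Emulsion formulation, water-diluted to set dose, was put onto the flooded surface (4 cm depth, alluvial soil) the same day weeds were sown and 2.5-leaf rice transplanted. After 3 weeks at 25-30 °C under glass, each species was rated 0 (≤5% kill) to 5 (≥90% kill).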

barnyard grass [9] = assay: Test Example 3: herbicidal effect by foliage application, Wagner pot (Table 18, symbol H); assay type: in vivo, barnyard grass (Echinochloa crus-galli); settings: 320 g/ha
Procedure, shortened: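 Plants were sown in alluvial soil held under 0.1–0.5 cm standing water and grown 14 days in a greenhouse at 25–30 °C. An emulsifiable formulation, water-diluted to the set dose, was then sprayed onto the foliage, and effects were scored three weeks later using previously defined criteria.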

southern crabgrass = assay: Test Example 5: herbicidal effect by foliage application, plastic box (Table 20, symbol F); assay type: in vivo, southern crabgrass (Digitaria ciliaris); settings: foliage application, 320 g/ha; for herbicidal effect on F: southern crabgrass: evaluated three weeks after application
Procedure, shortened: as §2

blackgrass [10] = assay: Test Example 5: herbicidal effect by foliage application, plastic box (Table 20, symbol J); assay type: in vivo, blackgrass (Alopecurus myosuroides); settings: foliage application, 320 g/ha; for herbicidal effect on J: blackgrass: evaluated three weeks after application
Procedure, shortened: as §2

Japanese bulrush [11] = assay: Test Example 1: herbicidal activity, application before weed generation under submerged conditions (Table 16, symbol B); assay type: in vivo, Japanese bulrush (Schoenoplectus juncoides); settings: 320 g/ha applied herbicide
Procedure, shortened: as §4

velvetleaf [12] = assay: Test Example 4: herbicidal effect by soil treatment (Table 19, symbol M); assay type: in vivo, velvetleaf (Abutilon theophrasti); settings: 320 g/ha
Procedure, shortened: as §1

windgrass = assay: Test Example 5: herbicidal effect by foliage application, plastic box (Table 20, symbol L); assay type: in vivo, windgrass (Apera spica-venti); settings: foliage application, 320 g/ha; for herbicidal effect on L: windgrass: evaluated three weeks after application
Procedure, shortened: as §2

persian speedwell [13] = assay: Test Example 5: herbicidal effect by foliage application, plastic box (Table 20, symbol R); assay type: in vivo, Persian speedwell (Veronica persica); settings: foliage application, 320 g/ha; for herbicidal effect on R: persian speedwell: evaluated three weeks after application
Procedure, shortened: as §2

oval-leafed pondweed [14] = assay: Test Example 2: herbicidal activity, application during weed generation under submerged conditions (Table 17, symbol C); assay type: in vivo, oval-leafed pondweed (Monochoria vaginalis); settings: AAH 320 g/ha; application during weed generation, submerged conditions
Procedure, shortened: as §3

Compound	herbicidal effect rating, N: redroot pigweed (redroot pigweed)	herbicidal effect rating, R: persian speedwell (persian speedwell [1])	herbicidal effect rating, J: blackgrass (blackgrass [3])	herbicidal effect rating, H: barnyard grass (barnyard grass [4])	herbicidal effect rating, B: Japanese bulrush (Japanese bulrush [5])	herbicidal effect rating, G: green foxtail (green foxtail [7])	Herbicidal effect on C: oval-leafed pondweed (grade 0-5) (oval-leafed pondweed [8])	herbicidal effect on H (barnyard grass), rating 0-5 (barnyard grass [9])	Herbicidal effect on B: Japanese bulrush (grade 0-5) (Japanese bulrush [11])	herbicidal effect rating, M: velvetleaf (velvetleaf [12])	herbicidal effect rating, C: oval-leafed pondweed (oval-leafed pondweed [14])	herbicidal effect on M: velvetleaf (velvetleaf [2])	herbicidal effect on G: green foxtail (green foxtail [6])	herbicidal effect on F: southern crabgrass (southern crabgrass)	herbicidal effect on J: blackgrass (blackgrass [10])	herbicidal effect on L: windgrass (windgrass)	herbicidal effect on R: persian speedwell (persian speedwell [13])	other results
CCCC(=O)Oc1c(C)nn(C)c(=O)c1-c1c(-c2ccccc2OC(F)(F)F)sc2ccc(F)cc12 [2-044]	5 (Herbicidal rate of 90% or more (almost completely withered))	4 (Herbicidal rate of 70% or more and less than 90%)	0 (Herbicidal rate of 5% or less (almost no effect))	3 (Herbicidal rate of 40% or more and less than 70%)	3 (Herbicidal rate of 40% or more and less than 70%)	4 (Herbicidal rate of 70% or more and less than 90%)	0 (Herbicidal rate of 5% or less (almost no effect))	3 (Herbicidal rate of 40% or more and less than 70%)	0 (Herbicidal rate of 5% or less (almost no effect))	3 (Herbicidal rate of 40% or more and less than 70%)	3 (Herbicidal rate of 40% or more and less than 70%)							effect on velvetleaf (M) (velvetleaf [2]; 3 weeks after application): 5 (Herbicidal rate of 90% or more (almost completely withered)); effect on green foxtail (G) (green foxtail [6]; 3 weeks after application): 5 (Herbicidal rate of 90% or more (almost completely withered)); effect on southern crabgrass (F) (southern crabgrass; 3 weeks after application): 4 (Herbicidal rate of 70% or more and less than 90%); effect on blackgrass (J) (blackgrass [10]; 3 weeks after application): 0 (Herbicidal rate of 5% or less (almost no effect)); effect on windgrass (L) (windgrass; 3 weeks after application): 4 (Herbicidal rate of 70% or more and less than 90%); effect on persian speedwell (R) (persian speedwell [13]; 3 weeks after application): 5 (Herbicidal rate of 90% or more (almost completely withered))
C#CCOc1ccc(-c2sc3ccc(F)cc3c2-c2c(OCOCCOC)c(C)nn(C)c2=O)cc1 [2-055]	4 (Herbicidal rate of 70% or more and less than 90%)	5 (Herbicidal rate of 90% or more (almost completely withered))	0 (Herbicidal rate of 5% or less (almost no effect))	3 (Herbicidal rate of 40% or more and less than 70%)	3 (Herbicidal rate of 40% or more and less than 70%)	4 (Herbicidal rate of 70% or more and less than 90%)	1 (Herbicidal rate of 5% or more and less than 20%)	5 (Herbicidal rate of 90% or more (almost completely withered))	3 (Herbicidal rate of 40% or more and less than 70%)	3 (Herbicidal rate of 40% or more and less than 70%)	3 (Herbicidal rate of 40% or more and less than 70%)	5 (Herbicidal rate of 90% or more (almost completely withered))	5 (Herbicidal rate of 90% or more (almost completely withered))	1 (Herbicidal rate of 5% or more and less than 20%)	3 (Herbicidal rate of 40% or more and less than 70%)	0 (Herbicidal rate of 5% or less (almost no effect))	5 (Herbicidal rate of 90% or more (almost completely withered))	
COCCOc1ccc(-c2sc3ccc(F)cc3c2-c2c(O)c(C)nn(C)c2=O)cc1 [2-056]	5 (Herbicidal rate of 90% or more (almost completely withered))	5 (Herbicidal rate of 90% or more (almost completely withered))	0 (Herbicidal rate of 5% or less (almost no effect))	5 (Herbicidal rate of 90% or more (almost completely withered))	3 (Herbicidal rate of 40% or more and less than 70%)	5 (Herbicidal rate of 90% or more (almost completely withered))	5 (Herbicidal rate of 90% or more (almost completely withered))	5 (Herbicidal rate of 90% or more (almost completely withered))	5 (Herbicidal rate of 90% or more (almost completely withered))	5 (Herbicidal rate of 90% or more (almost completely withered))	3 (Herbicidal rate of 40% or more and less than 70%)	5 (Herbicidal rate of 90% or more (almost completely withered))	5 (Herbicidal rate of 90% or more (almost completely withered))	5 (Herbicidal rate of 90% or more (almost completely withered))	5 (Herbicidal rate of 90% or more (almost completely withered))	4 (Herbicidal rate of 70% or more and less than 90%)	5 (Herbicidal rate of 90% or more (almost completely withered))	
Cc1nn(C)c(=O)c(-c2c(-c3ccc(OCC4CC4)cc3)sc3ccc(F)cc23)c1O [2-060]	5 (Herbicidal rate of 90% or more (almost completely withered))	5 (Herbicidal rate of 90% or more (almost completely withered))	0 (Herbicidal rate of 5% or less (almost no effect))	3 (Herbicidal rate of 40% or more and less than 70%)	3 (Herbicidal rate of 40% or more and less than 70%)	1 (Herbicidal rate of 5% or more and less than 20%)	4 (Herbicidal rate of 70% or more and less than 90%)	3 (Herbicidal rate of 40% or more and less than 70%)	5 (Herbicidal rate of 90% or more (almost completely withered))	0 (Herbicidal rate of 5% or less (almost no effect))	1 (Herbicidal rate of 5% or more and less than 20%)	4 (Herbicidal rate of 70% or more and less than 90%)	3 (Herbicidal rate of 40% or more and less than 70%)	4 (Herbicidal rate of 70% or more and less than 90%)	3 (Herbicidal rate of 40% or more and less than 70%)	4 (Herbicidal rate of 70% or more and less than 90%)	5 (Herbicidal rate of 90% or more (almost completely withered))	
